Measured values as given in US12474342B2, “Methods for treating cancer and the use of biomarkers as a predictor of clinical sensitivity to therapies” (CELGENE CORPORATION, priority 2016, dated 2025).
Where two headings read alike, the source gives them in different places. Marks after values point to notes of the source that are not given here.

Experiments:
AML-193 cells = assay: Apoptosis (caspase 3/7 activation), AML-193; type: cell-based, human; details: for EC50: Homo sapiens, read-out: Compound D-induced Apoptosis EC50
OCI-AML2 cells = assay: Apoptosis (caspase 3/7 activation), OCI-AML2; type: cell-based, human; details: for EC50: Homo sapiens, read-out: Compound D-induced Apoptosis EC50
GSPT1 [1] = biological target: T1, GSPT1 (Homo sapiens, UniProt P15170+Q96SW2); assay: GSPT1 protein reduction, western analysis, F36-P; type: cell-based; set-up: reduction in GSPT1 protein level was evaluated in human normal PBMCs; endogenous in cells; host or cells: primary PBMCs from normal donors (ID 4328, 4379) and AML patients (ID 11SH, 09P6)
Procedure: (§1) The time course of the reduction in GSPT1 by Compound D also was studied for up to 48 hours. The progressive degradation of GSPT1 over the course of 1 to 20 hours was evident in the presence of all concentrations of Compound D studied from 3 to 300 nM in HNT-34, HL-60, and ML-2 cells, with little GSPT1 remaining by 20 hours at 100 or 300 nM Compound D in HNT-34 or HL-60 cells (FIG. 34 and FIG. 35C). Time-dependent reduction in GSPT1 was also observed in KG-1 and OCI-AML2 cells at 3 to 1000 nM Compound D, with little GSPT1 remaining in KG-1 cells at 100 to 300 nM at 24 hours or in OCI-AML2 cells at 300 and 1000 nM at 24 hours (FIG. 35D). Loss of GSPT1 occurred more slowly in Kasumi-1, AML-193, and […] cells. […] A positive association (r^2=0.50; […]

GSPT1 [2] = biological target: T1, GSPT1; assay: GSPT1 protein reduction, western analysis, OCI-AML3; type: cell-based; set-up: reduction in GSPT1 protein level was evaluated in human normal PBMCs; endogenous in cells; host or cells: primary PBMCs from normal donors (ID 4328, 4379) and AML patients (ID 11SH, 09P6)
Procedure: (§2) The reduction in the level of GSPT1 protein was concentration-dependent over the range of 3 to 1000 nM in eight of the nine AML cell lines and over the range of 300 to 1000 nM in one relatively insensitive AML cell line. The time course of the reduction in GSPT1 by Compound D also was studied for up to 48 hours. The progressive degradation of GSPT1 over the course of 1 to 20 hours was evident in the presence of all concentrations of Compound D studied from 3 to 300 nM in HNT-34, HL-60, and ML-2 cells, with little GSPT1 remaining by 20 hours at 100 or 300 nM Compound D in HNT-34 or HL-60 cells (FIG. 34 and FIG. 35C). Time-dependent reduction in GSPT1 was also observed in KG-1 and OCI-AML2 cells at 3 to 1000 nM Compound D, with little GSPT1 remaining in KG-1 cells at 100 to 300 nM at 24 hours or in OCI-AML2 cells at 300 and 1000 nM at 24 hours (FIG. 35D). Loss of GSPT1 occurred more slowly in Kasumi-1, AML-193, and F36-P cells.
(§3) Compound D-mediated GSPT1 reduction at 8 hours was compared to induction of caspase 3/7 activation (apoptosis) at 12, 24, and 48 hour time points in these nine AML cell lines. […] A positive association (r^2=0.50; R=0.71; p value=4.86E-002) was observed between the level of GSPT1 reduction and apoptosis induction in the AML cell panel (FIG. 36), with >90% GSPT1 reduction correlating with induction of apoptosis.

GSPT1 [3] = biological target: T1, GSPT1; assay: GSPT1 protein reduction, western analysis, OCI-AML2; type: cell-based; set-up: reduction in GSPT1 protein level was evaluated in human normal PBMCs; endogenous in cells; host or cells: primary PBMCs from normal donors (ID 4328, 4379) and AML patients (ID 11SH, 09P6); details: for degradation of GSPT1: 100 nM
Procedure: Thus, Compound D-induced GSPT1 degradation is also CRBN-dependent.
as §2, §3

[4] = test system: p-eIF2α, ATF4, ATF3, CHOP/DDIT3, cleaved Caspases; assay: UPR / ATF4 pathway and apoptosis markers in U937 cells (wild type and CRISPR knockouts); type: cell-based, human; details: for ATF4 pathway and apoptosis: 4 μM
Text: PERK, one of the four eIF2α, kinases, was knocked out in U937 cells by CRISPR-mediated gene editing using PERK−/− Construct 1 or PERK−/− Construct 2.
GCN2, one of the four eIF2α, kinases, was knocked out in U937 cells by CRISPR-mediated gene editing using GCN2 CRISPR Construct 1 or GCN2 CRISPR Construct 4.

GSPT1 [5] = biological target: T1, GSPT1; assay: GSPT1 protein reduction, western analysis, ML-2; type: cell-based; set-up: reduction in GSPT1 protein level was evaluated in human normal PBMCs; endogenous in cells; host or cells: primary PBMCs from normal donors (ID 4328, 4379) and AML patients (ID 11SH, 09P6)
Procedure: as §1

T1 sequence (P15170 1-637 isoform P15170-3): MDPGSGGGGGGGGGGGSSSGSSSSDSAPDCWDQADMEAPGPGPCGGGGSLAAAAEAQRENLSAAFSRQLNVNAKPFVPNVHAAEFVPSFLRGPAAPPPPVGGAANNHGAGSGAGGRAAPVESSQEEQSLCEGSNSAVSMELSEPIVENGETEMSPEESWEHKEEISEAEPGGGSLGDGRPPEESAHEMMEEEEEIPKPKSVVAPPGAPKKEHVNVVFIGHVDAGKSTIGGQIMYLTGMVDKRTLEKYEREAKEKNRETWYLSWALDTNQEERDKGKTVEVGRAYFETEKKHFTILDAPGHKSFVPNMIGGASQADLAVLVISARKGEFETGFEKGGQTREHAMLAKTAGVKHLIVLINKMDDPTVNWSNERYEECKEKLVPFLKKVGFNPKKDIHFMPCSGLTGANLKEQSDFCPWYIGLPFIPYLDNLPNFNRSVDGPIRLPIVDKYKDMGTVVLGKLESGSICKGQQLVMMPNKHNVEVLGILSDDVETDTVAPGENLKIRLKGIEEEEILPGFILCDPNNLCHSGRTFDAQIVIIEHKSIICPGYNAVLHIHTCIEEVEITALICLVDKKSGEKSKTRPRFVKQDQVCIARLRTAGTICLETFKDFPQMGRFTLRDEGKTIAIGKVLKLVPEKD
T1 sequence (Q96SW2 whole entry): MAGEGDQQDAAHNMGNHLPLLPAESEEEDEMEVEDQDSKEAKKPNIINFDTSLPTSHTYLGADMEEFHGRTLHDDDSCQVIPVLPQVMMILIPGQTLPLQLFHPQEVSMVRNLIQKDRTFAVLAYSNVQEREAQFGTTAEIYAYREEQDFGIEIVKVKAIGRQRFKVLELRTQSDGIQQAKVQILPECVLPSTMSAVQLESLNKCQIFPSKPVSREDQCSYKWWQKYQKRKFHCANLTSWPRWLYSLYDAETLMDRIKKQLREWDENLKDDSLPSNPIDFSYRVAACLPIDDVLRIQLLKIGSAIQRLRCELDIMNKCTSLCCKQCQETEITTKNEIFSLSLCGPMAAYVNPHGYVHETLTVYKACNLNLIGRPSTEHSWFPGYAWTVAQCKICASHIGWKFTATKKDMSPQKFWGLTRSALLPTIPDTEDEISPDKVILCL
T1 sequence (Q16531 whole entry partner): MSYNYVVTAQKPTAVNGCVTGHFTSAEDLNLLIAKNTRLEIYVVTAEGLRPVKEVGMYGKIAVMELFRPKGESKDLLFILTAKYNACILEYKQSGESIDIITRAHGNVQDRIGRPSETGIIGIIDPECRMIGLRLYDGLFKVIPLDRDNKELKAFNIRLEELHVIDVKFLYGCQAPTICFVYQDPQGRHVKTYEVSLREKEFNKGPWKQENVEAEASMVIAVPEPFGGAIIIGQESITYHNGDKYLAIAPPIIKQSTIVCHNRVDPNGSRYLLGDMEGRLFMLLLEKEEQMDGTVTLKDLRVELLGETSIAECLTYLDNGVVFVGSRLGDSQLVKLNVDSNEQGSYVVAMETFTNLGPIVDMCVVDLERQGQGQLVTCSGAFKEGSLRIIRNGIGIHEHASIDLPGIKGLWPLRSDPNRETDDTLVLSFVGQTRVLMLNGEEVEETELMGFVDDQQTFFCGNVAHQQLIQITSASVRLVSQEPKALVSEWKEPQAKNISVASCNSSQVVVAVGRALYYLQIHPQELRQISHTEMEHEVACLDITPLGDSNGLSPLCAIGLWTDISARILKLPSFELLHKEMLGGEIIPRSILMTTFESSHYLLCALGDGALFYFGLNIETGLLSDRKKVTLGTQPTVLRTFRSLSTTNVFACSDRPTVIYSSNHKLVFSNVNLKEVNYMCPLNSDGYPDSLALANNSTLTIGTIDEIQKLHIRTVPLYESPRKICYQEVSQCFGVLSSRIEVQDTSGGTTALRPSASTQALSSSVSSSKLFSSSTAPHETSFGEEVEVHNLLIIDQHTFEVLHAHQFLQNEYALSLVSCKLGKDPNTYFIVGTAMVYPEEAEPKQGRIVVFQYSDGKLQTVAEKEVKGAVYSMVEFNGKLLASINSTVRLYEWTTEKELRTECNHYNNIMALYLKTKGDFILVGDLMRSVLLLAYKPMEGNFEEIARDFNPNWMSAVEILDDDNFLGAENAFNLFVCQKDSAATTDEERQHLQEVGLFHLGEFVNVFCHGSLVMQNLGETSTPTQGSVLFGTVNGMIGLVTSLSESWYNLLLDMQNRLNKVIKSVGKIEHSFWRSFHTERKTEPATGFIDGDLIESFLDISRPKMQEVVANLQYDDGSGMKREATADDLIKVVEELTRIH

O=C1CCC(N2Cc3cc(CNC(=O)C(F)(F)c4ccc(Cl)cc4)ccc3C2=O)C(=O)N1 (stereo not drawn) [Compound D, 2-(4-chlorophenyl)-N-((2-(2,6-dioxopiperidin-3-yl)-1-oxoisoindolin-5-yl)methyl)-2,2-difluoroacetamide]
Average Percent Increase in Apoptosis at 123 nM Compound D, Apoptosis (12 hr) (AML-193 cells; AML-193, 123 nM, 12 hr): 0% | Average Percent Increase in Apoptosis at 123 nM Compound D, Apoptosis (24 hr) (AML-193 cells; AML-193, 123 nM, 24 hr): 5% | Average Percent Increase in Apoptosis at 123 nM Compound D, Apoptosis (48 hr) (AML-193 cells; AML-193, 123 nM, 48 hr): 40% | EC50 (AML-193 cells; AML-193, 48 hr): 89 nM | EC50 (AML-193 cells; AML-193, 72 hr): 47 nM | EC50 (AML-193 cells; AML-193, 96 hr): 60 nM | EC50 (OCI-AML2 cells; OCI-AML2, 48 hr): 81 nM | EC50 (OCI-AML2 cells; OCI-AML2, 72 hr): 41 nM | EC50 (OCI-AML2 cells; OCI-AML2, 96 hr): 38 nM | Average Percent Increase in Apoptosis at 123 nM Compound D, Apoptosis (12 hr) (OCI-AML2 cells; OCI-AML2, 123 nM, 12 hr): 0% | Average Percent Increase in Apoptosis at 123 nM Compound D, Apoptosis (24 hr) (OCI-AML2 cells; OCI-AML2, 123 nM, 24 hr): 3% | Average Percent Increase in Apoptosis at 123 nM Compound D, Apoptosis (48 hr) (OCI-AML2 cells; OCI-AML2, 123 nM, 48 hr): 33% | Percent Reduction at 100 nM Compound D GSPTI (8 hr) (GSPT1 [1]; 100 nM, 8 hr, change not concentration-dependent at the 8-hour time point): 39^a % | GSPT1 reduction (GSPT1 [1]; 300 nM Compound D, 8 hours): 18% | Percent Reduction at 100 nM Compound D GSPTI (8 hr) (GSPT1 [2]; OCI-AML3, 100 nM, 8 hr, visual interpolation between 3 and 300 nM): ~30^b % | GSPT1 reduction (GSPT1 [2]; OCI-AML3, 300 nM Compound D, 8 hours): 37% | GSPT1 protein level (GSPT1 [2]; OCI-AML3, 4-hour exposure): barely changed | loss of GSPT1 (GSPT1 [2]; OCI-AML3, 300 and 1000 nM, 24 and 48 hours): slight loss | degradation of GSPT1 (GSPT1 [3]; CRBN -/- OCI-AML2 cells): could not induce degradation | reduction of GSPT1 protein levels (GSPT1 [3]; OC-AML2, 100 nM Compound D, 8 hours): greater than 800 | Percent Reduction at 100 nM Compound D GSPTI (8 hr) (GSPT1 [3]; OCI-AML2, 100 nM, 8 hr): 89% | degradation of GSPT1 (GSPT1 [3]; parental OCI-AML2 cells): induced degradation | ATF4 pathway and apoptosis ([4]; GCN2 knockout U937 cells): blocked | ATF4 pathway and apoptosis ([4]; wild type U937 cells): induced the ATF4 pathway and apoptosis | apoptosis ([4]; wild type and PERK knockout U937 cells, 2 μM): induced apoptosis | reduction of GSPT1 protein levels (GSPT1 [5]; ML-2, 100 nM Compound D, 8 hours): greater than 800 | Percent Reduction at 100 nM Compound D GSPTI (8 hr) (GSPT1 [5]; ML-2, 100 nM, 8 hr): 82%
